Reference: BigSolDB 2.1

Cc1c(Cl)cccc1Nc1ccccc1C(=O)O
solubility (mole fraction)
Conditions	283.15 K	288.15 K	293.15 K	298.15 K	303.15 K	308.15 K	313.15 K	318.15 K	323.15 K	328.15 K
in 1,4-dioxane	–	0.0289	0.032	0.0356	0.0399	0.0444	0.0492	0.0548	0.0599	0.0654
in DMF	0.00652	0.00892	0.0117	0.0152	0.019	0.0241	0.0303	0.0374	0.0454	0.055
in DMSO	–	–	0.0144	0.0186	0.0229	0.0288	0.0351	0.042	0.0495	0.0571
in acetonitrile	0.000228	0.000339	0.000463	0.000618	0.000808	0.00107	0.00137	0.00177	0.00221	0.00282
in cyclohexane	2.97e-05	4.31e-05	5.94e-05	8.23e-05	0.000116	0.000159	0.000216	0.000292	0.000391	0.000515
in ethyl acetate	0.00603	0.00799	0.0102	0.0127	0.0162	0.0201	0.0252	0.0314	0.0383	0.0458
in ethyl formate	0.00169	0.00239	0.00311	0.00405	0.00506	0.0066	0.00833	0.01	0.0131	0.0159
in ethylene glycol	8.74e-05	0.000132	0.000177	0.000233	0.000311	0.000406	0.000546	0.000717	0.000931	0.00122
in n-heptanol	0.00557	0.00726	0.00924	0.0114	0.0142	0.0171	0.0214	0.0257	0.0306	0.0366
in n-hexanol	0.00435	0.00581	0.00758	0.0094	0.0118	0.0144	0.0176	0.021	0.0251	0.0295
in n-pentanol	0.00335	0.00432	0.00575	0.00741	0.00916	0.0112	0.0138	0.0169	0.0206	0.0243
in n-pentyl acetate	0.00558	0.00726	0.00931	0.0116	0.0146	0.0179	0.0218	0.0261	0.031	0.0371
